Assay results as given in the NIST ThermoML archive (doi:10.1021/je2003012).
Values joined by “and” are separate entries in the source; they are usually repeats but may differ in a detail not shown here. Identical values can stand only once.

Assay: relative permittivity at various frequencies (dimensionless); wn = mass fraction of the nth substance listed
Conditions: Liquid, direct capacitance:P =

O=C=O [carbon dioxide] + CCO
Conditions	relative permittivity
322.4 K, 11900 kPa, w2 = 0.1	1.94
322.4 K, 12200 kPa, w2 = 0.1	1.96
322.4 K, 13700 kPa, w2 = 0.1	2.01
322.4 K, 13900 kPa, w2 = 0.1	2.02
322.4 K, 15700 kPa, w2 = 0.1	2.06
322.4 K, 15800 kPa, w2 = 0.1	2.07
322.4 K, 16700 kPa, w2 = 0.1	2.09
322.4 K, 17100 kPa, w2 = 0.1	2.09
322.4 K, 17600 kPa, w2 = 0.1	2.11
322.4 K, 18600 kPa, w2 = 0.1	2.13
322.4 K, 19600 kPa, w2 = 0.1	2.14
322.4 K, 20600 kPa, w2 = 0.1	2.16
322.4 K, 21600 kPa, w2 = 0.1	2.18
322.4 K, 21700 kPa, w2 = 0.1	2.18
322.4 K, 22600 kPa, w2 = 0.1	2.19
322.4 K, 23600 kPa, w2 = 0.1	2.21
322.4 K, 24500 kPa, w2 = 0.1	2.22
322.4 K, 25500 kPa, w2 = 0.1	2.23
322.4 K, 26500 kPa, w2 = 0.1	2.24
322.4 K, 27500 kPa, w2 = 0.1	2.26
322.4 K, 28400 kPa, w2 = 0.1	2.27
322.4 K, 29900 kPa, w2 = 0.1	2.28
322.5 K, 10200 kPa, w2 = 0.05	1.53
322.5 K, 12100 kPa, w2 = 0.05	1.63
322.5 K, 13100 kPa, w2 = 0.05	1.66
322.5 K, 14200 kPa, w2 = 0.05	1.7
322.5 K, 14700 kPa, w2 = 0.05	1.7
322.5 K, 16000 kPa, w2 = 0.05	1.73
322.5 K, 16100 kPa, w2 = 0.05	1.73
322.5 K, 17200 kPa, w2 = 0.05	1.75
322.5 K, 18900 kPa, w2 = 0.05	1.78
322.5 K, 19500 kPa, w2 = 0.05	1.79
322.5 K, 20800 kPa, w2 = 0.05	1.8
322.5 K, 21800 kPa, w2 = 0.05	1.81
322.5 K, 22700 kPa, w2 = 0.05	1.82
322.5 K, 23600 kPa, w2 = 0.05	1.83
322.5 K, 24700 kPa, w2 = 0.05	1.84
322.5 K, 25800 kPa, w2 = 0.05	1.85
322.5 K, 26300 kPa, w2 = 0.05	1.86
322.5 K, 27900 kPa, w2 = 0.05	1.87
322.5 K, 28400 kPa, w2 = 0.05	1.87
322.5 K, 29300 kPa, w2 = 0.05	1.88
322.5 K, 29500 kPa, w2 = 0.05	1.88
322.5 K, 30300 kPa, w2 = 0.05	1.89
323.3 K, 9900 kPa, w2 = 0.152	2.06
323.3 K, 11000 kPa, w2 = 0.152	2.13
323.3 K, 12000 kPa, w2 = 0.152	2.18
323.3 K, 12700 kPa, w2 = 0.152	2.21
323.3 K, 13600 kPa, w2 = 0.152	2.25
323.3 K, 14700 kPa, w2 = 0.152	2.28
323.3 K, 15900 kPa, w2 = 0.152	2.31
323.3 K, 16900 kPa, w2 = 0.152	2.34
323.3 K, 17800 kPa, w2 = 0.152	2.36
323.3 K, 18600 kPa, w2 = 0.152	2.37
323.3 K, 18700 kPa, w2 = 0.152	2.38
323.3 K, 19500 kPa, w2 = 0.152	2.4
323.3 K, 20300 kPa, w2 = 0.152	2.41
323.3 K, 21700 kPa, w2 = 0.152	2.44
323.3 K, 22800 kPa, w2 = 0.152	2.45
323.3 K, 23100 kPa, w2 = 0.152	2.46
323.3 K, 23500 kPa, w2 = 0.152	2.47
323.3 K, 24500 kPa, w2 = 0.152	2.48
323.3 K, 25400 kPa, w2 = 0.152	2.5
323.3 K, 26500 kPa, w2 = 0.152	2.51
323.3 K, 28400 kPa, w2 = 0.152	2.54
323.3 K, 29500 kPa, w2 = 0.152	2.56
323.4 K, 9800 kPa, w2 = 0.212	2.59
323.4 K, 10600 kPa, w2 = 0.212	2.61
323.4 K, 11500 kPa, w2 = 0.212	2.67
323.4 K, 12400 kPa, w2 = 0.212	2.71
323.4 K, 13100 kPa, w2 = 0.212	2.75
323.4 K, 14100 kPa, w2 = 0.212	2.79
323.4 K, 15800 kPa, w2 = 0.212	2.85
323.4 K, 16600 kPa, w2 = 0.212	2.87
323.4 K, 17800 kPa, w2 = 0.212	2.9
323.4 K, 18800 kPa, w2 = 0.212	2.93
323.4 K, 19600 kPa, w2 = 0.212	2.95
323.4 K, 19700 kPa, w2 = 0.212	2.95
323.4 K, 21100 kPa, w2 = 0.212	2.98
323.4 K, 22900 kPa, w2 = 0.212	3.03
323.4 K, 23100 kPa, w2 = 0.212	3.03
323.4 K, 23200 kPa, w2 = 0.212	3.03
323.4 K, 24700 kPa, w2 = 0.212	3.06
323.4 K, 26000 kPa, w2 = 0.212	3.08
323.4 K, 26700 kPa, w2 = 0.212	3.1
323.4 K, 27900 kPa, w2 = 0.212	3.12
323.4 K, 29500 kPa, w2 = 0.212	3.14
323.4 K, 30600 kPa, w2 = 0.212	3.15
333.2 K, 10500 kPa, w2 = 0.05	1.32
333.2 K, 11200 kPa, w2 = 0.05	1.41
333.2 K, 11900 kPa, w2 = 0.212	2.38
333.2 K, 12100 kPa, w2 = 0.05	1.48
333.2 K, 12900 kPa, w2 = 0.212	2.45
333.2 K, 13000 kPa, w2 = 0.05	1.54 and 1.53
333.2 K, 13200 kPa, w2 = 0.212	2.47
333.2 K, 13700 kPa, w2 = 0.05	1.57
333.2 K, 14100 kPa, w2 = 0.212	2.52
333.2 K, 14700 kPa, w2 = 0.212	2.54
333.2 K, 14900 kPa, w2 = 0.05	1.62
333.2 K, 15800 kPa, w2 = 0.212	2.59
333.2 K, 15900 kPa, w2 = 0.05	1.64
333.2 K, 16200 kPa, w2 = 0.212	2.61
333.2 K, 16900 kPa, w2 = 0.212	2.62
333.2 K, 17000 kPa, w2 = 0.05	1.67
333.2 K, 17300 kPa, w2 = 0.212	2.64
333.2 K, 17600 kPa, w2 = 0.05	1.69
333.2 K, 18500 kPa, w2 = 0.212	2.68
333.2 K, 19100 kPa, w2 = 0.05	1.72
333.2 K, 19100 kPa, w2 = 0.212	2.7
333.2 K, 19200 kPa, w2 = 0.212	2.7
333.2 K, 19400 kPa, w2 = 0.05	1.72
333.2 K, 21000 kPa, w2 = 0.05	1.75
333.2 K, 21200 kPa, w2 = 0.212	2.75
333.2 K, 21300 kPa, w2 = 0.212	2.75
333.2 K, 21600 kPa, w2 = 0.05	1.75
333.2 K, 22900 kPa, w2 = 0.05	1.77
333.2 K, 23000 kPa, w2 = 0.212	2.79
333.2 K, 23100 kPa, w2 = 0.212	2.79
333.2 K, 23700 kPa, w2 = 0.05	1.78
333.2 K, 24900 kPa, w2 = 0.212	2.83
333.2 K, 25000 kPa, w2 = 0.05	1.8
333.2 K, 25000 kPa, w2 = 0.212	2.83
333.2 K, 25200 kPa, w2 = 0.212	2.83
333.2 K, 25500 kPa, w2 = 0.212	2.85
333.2 K, 26800 kPa, w2 = 0.212	2.86
333.2 K, 26900 kPa, w2 = 0.05	1.82
333.2 K, 27000 kPa, w2 = 0.212	2.87
333.2 K, 27400 kPa, w2 = 0.05	1.82
333.2 K, 28400 kPa, w2 = 0.212	2.9
333.2 K, 28800 kPa, w2 = 0.05	1.83
333.2 K, 29900 kPa, w2 = 0.05	1.84
333.2 K, 30600 kPa, w2 = 0.212	2.94
333.3 K, 11800 kPa, w2 = 0.152	1.99
333.3 K, 11900 kPa, w2 = 0.1	1.74
333.3 K, 12900 kPa, w2 = 0.1	1.81
333.3 K, 12900 kPa, w2 = 0.152	2.07
333.3 K, 13700 kPa, w2 = 0.1	1.86
333.3 K, 13800 kPa, w2 = 0.152	2.11
333.3 K, 14800 kPa, w2 = 0.1	1.9
333.3 K, 14800 kPa, w2 = 0.152	2.16
333.3 K, 15700 kPa, w2 = 0.1	1.94
333.3 K, 15900 kPa, w2 = 0.152	2.2
333.3 K, 16700 kPa, w2 = 0.1	1.96
333.3 K, 16700 kPa, w2 = 0.152	2.22
333.3 K, 17700 kPa, w2 = 0.152	2.26
333.3 K, 17800 kPa, w2 = 0.1	2
333.3 K, 18500 kPa, w2 = 0.1	2.01
333.3 K, 18700 kPa, w2 = 0.152	2.28
333.3 K, 19400 kPa, w2 = 0.1	2.03
333.3 K, 19600 kPa, w2 = 0.1	2.03
333.3 K, 19700 kPa, w2 = 0.152	2.31
333.3 K, 20600 kPa, w2 = 0.1	2.06
333.3 K, 20800 kPa, w2 = 0.152	2.33
333.3 K, 21700 kPa, w2 = 0.1	2.08
333.3 K, 22000 kPa, w2 = 0.152	2.36
333.3 K, 22600 kPa, w2 = 0.1	2.09
333.3 K, 22700 kPa, w2 = 0.152	2.37
333.3 K, 23500 kPa, w2 = 0.152	2.38
333.3 K, 23900 kPa, w2 = 0.1	2.11
333.3 K, 24500 kPa, w2 = 0.152	2.4
333.3 K, 24800 kPa, w2 = 0.1	2.12
333.3 K, 25200 kPa, w2 = 0.1	2.13
333.3 K, 25600 kPa, w2 = 0.1	2.14 and 2.13
333.3 K, 25600 kPa, w2 = 0.152	2.42
333.3 K, 26500 kPa, w2 = 0.1	2.15
333.3 K, 26600 kPa, w2 = 0.1	2.15
333.3 K, 26600 kPa, w2 = 0.152	2.43
333.3 K, 27200 kPa, w2 = 0.1	2.16
333.3 K, 27500 kPa, w2 = 0.1	2.16
333.3 K, 27600 kPa, w2 = 0.152	2.45
333.3 K, 27900 kPa, w2 = 0.1	2.16
333.3 K, 28400 kPa, w2 = 0.152	2.46
333.3 K, 28500 kPa, w2 = 0.1	2.17
333.3 K, 29200 kPa, w2 = 0.1	2.18
333.3 K, 29200 kPa, w2 = 0.152	2.47
333.3 K, 29900 kPa, w2 = 0.152	2.48
